Tests used:
chickweed [1] = experiment: Test Example 5: herbicidal effect by foliage application, plastic box (Table 20, symbol P); format: in vivo, common chickweed (Stellaria media); conditions: foliage application, 269 g/ha, evaluated three weeks after application
In short: (§1)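 Sow seeds spot-wise in sterilized diluvial soil; cover with ~1.5 cm soil. Grow 14 days in greenhouse, 25° C. to 30° C. Spray foliage with emulsion diluted to predetermined amount. Rate effect after 3 weeks.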

barnyard grass [2] = experiment: Test Example 3: herbicidal effect by foliage application, Wagner pot (Table 18, symbol H); format: in vivo, barnyard grass (Echinochloa crus-galli); conditions: 269 g/ha
In short: (§2)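 Plants were sown in alluvial soil held under 0.1–0.5 cm standing water and grown 14 days in a greenhouse at 25–30 °C. An emulsifiable formulation, water-diluted to the set dose, was then sprayed onto the foliage, and effects were scored three weeks later using previously defined criteria.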

oval-leafed pondweed = experiment: Test Example 1: herbicidal activity, application before weed generation under submerged conditions (Table 16, symbol C); format: in vivo, oval-leafed pondweed (Monochoria vaginalis); conditions: 269 g/ha applied herbicide
In short: (§3)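 Submerged Wagner pots (alluvial soil, 4 cm water) sown with weed seeds and planted with 2.5-leaf rice seedlings; emulsifiable concentrate diluted in water applied to water surface on sowing day. Held in greenhouse at 25-30 °C; injury scored 0-5 by herbicidal rate after three weeks.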

green foxtail [3] = experiment: Test Example 4: herbicidal effect by soil treatment (Table 19, symbol G); format: in vivo, green foxtail (Setaria viridis); conditions: 269 g/ha
In short: (§4)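 Applied as a water-diluted emulsion, the compound was sprayed onto soil covering newly sown seeds. Evaluation came three weeks after application, in a greenhouse held at 25° C. to 30° C.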

persian speedwell [4] = experiment: Test Example 5: herbicidal effect by foliage application, plastic box (Table 20, symbol R); format: in vivo, Persian speedwell (Veronica persica); conditions: foliage application, 269 g/ha, evaluated three weeks after application
In short: as §1

Italian ryegrass [5] = experiment: Test Example 4: herbicidal effect by soil treatment (Table 19, symbol K); format: in vivo, Italian ryegrass (Lolium multiflorum); conditions: 269 g/ha
In short: as §4

blackgrass [6] = experiment: Test Example 5: herbicidal effect by foliage application, plastic box (Table 20, symbol J); format: in vivo, blackgrass (Alopecurus myosuroides); conditions: foliage application, 269 g/ha, evaluated three weeks after application
In short: as §1

velvetleaf [7] = experiment: Test Example 4: herbicidal effect by soil treatment (Table 19, symbol M); format: in vivo, velvetleaf (Abutilon theophrasti); conditions: 269 g/ha
In short: as §4

blackgrass [8] = experiment: Test Example 4: herbicidal effect by soil treatment (Table 19, symbol J); format: in vivo, blackgrass (Alopecurus myosuroides); conditions: 269 g/ha
In short: as §4

southern crabgrass [9] = experiment: Test Example 4: herbicidal effect by soil treatment (Table 19, symbol F); format: in vivo, southern crabgrass (Digitaria ciliaris); conditions: 269 g/ha
In short: as §4

redroot pigweed [10] = experiment: Test Example 5: herbicidal effect by foliage application, plastic box (Table 20, symbol N); format: in vivo, redroot pigweed (Amaranthus retroflexus); conditions: foliage application, 269 g/ha, evaluated three weeks after application
In short: as §1

green foxtail [11] = experiment: Test Example 5: herbicidal effect by foliage application, plastic box (Table 20, symbol G); format: in vivo, green foxtail (Setaria viridis); conditions: foliage application, 269 g/ha, evaluated three weeks after application
In short: as §1

lambsquarters [12] = experiment: Test Example 5: herbicidal effect by foliage application, plastic box (Table 20, symbol O); format: in vivo, lambsquarters (Chenopodium album); conditions: foliage application, 269 g/ha, evaluated three weeks after application
In short: as §1

velvetleaf [13] = experiment: Test Example 5: herbicidal effect by foliage application, plastic box (Table 20, symbol M); format: in vivo, velvetleaf (Abutilon theophrasti); conditions: foliage application, 269 g/ha, evaluated three weeks after application
In short: as §1

wild oat [14] = experiment: Test Example 5: herbicidal effect by foliage application, plastic box (Table 20, symbol I); format: in vivo, wild oat (Avena fatua); conditions: foliage application, 269 g/ha, evaluated three weeks after application
In short: as §1

windgrass [15] = experiment: Test Example 5: herbicidal effect by foliage application, plastic box (Table 20, symbol L); format: in vivo, windgrass (Apera spica-venti); conditions: foliage application, 269 g/ha, evaluated three weeks after application
In short: as §1

persian speedwell [16] = experiment: Test Example 4: herbicidal effect by soil treatment (Table 19, symbol R); format: in vivo, Persian speedwell (Veronica persica); conditions: 269 g/ha
In short: as §4

barnyard grass [17] = experiment: Test Example 4: herbicidal effect by soil treatment (Table 19, symbol H); format: in vivo, barnyard grass (Echinochloa crus-galli); conditions: 269 g/ha
In short: as §4

chickweed [18] = experiment: Test Example 4: herbicidal effect by soil treatment (Table 19, symbol P); format: in vivo, common chickweed (Stellaria media); conditions: 269 g/ha
In short: as §4

barnyard grass [19] = experiment: Test Example 5: herbicidal effect by foliage application, plastic box (Table 20, symbol H); format: in vivo, barnyard grass (Echinochloa crus-galli); conditions: foliage application, 269 g/ha, evaluated three weeks after application
In short: as §1

late watergrass = experiment: Test Example 1: herbicidal activity, application before weed generation under submerged conditions (Table 16, symbol A); format: in vivo, late watergrass (Echinochloa oryzicola); conditions: 269 g/ha applied herbicide
In short: as §3

Italian ryegrass [20] = experiment: Test Example 5: herbicidal effect by foliage application, plastic box (Table 20, symbol K); format: in vivo, Italian ryegrass (Lolium multiflorum); conditions: foliage application, 269 g/ha, evaluated three weeks after application
In short: as §1

redroot pigweed [21] = experiment: Test Example 4: herbicidal effect by soil treatment (Table 19, symbol N); format: in vivo, redroot pigweed (Amaranthus retroflexus); conditions: 269 g/ha
In short: as §4

lambsquarters [22] = experiment: Test Example 4: herbicidal effect by soil treatment (Table 19, symbol O); format: in vivo, lambsquarters (Chenopodium album); conditions: 269 g/ha
In short: as §4

Chinese sprangletop = experiment: Test Example 3: herbicidal effect by foliage application, Wagner pot (Table 18, symbol D); format: in vivo, chinese sprangletop (Leptochloa chinensis); conditions: 269 g/ha
In short: as §2

rice flat sedge = experiment: Test Example 3: herbicidal effect by foliage application, Wagner pot (Table 18, symbol E); format: in vivo, rice flat sedge (Cyperus iria); conditions: 269 g/ha
In short: as §2

windgrass [23] = experiment: Test Example 4: herbicidal effect by soil treatment (Table 19, symbol L); format: in vivo, windgrass (Apera spica-venti); conditions: 269 g/ha
In short: as §4

southern crabgrass [24] = experiment: Test Example 5: herbicidal effect by foliage application, plastic box (Table 20, symbol F); format: in vivo, southern crabgrass (Digitaria ciliaris); conditions: foliage application, 269 g/ha, evaluated three weeks after application
In short: as §1

wild oat [25] = experiment: Test Example 4: herbicidal effect by soil treatment (Table 19, symbol I); format: in vivo, wild oat (Avena fatua); conditions: 269 g/ha
In short: as §4

Japanese bulrush = experiment: Test Example 1: herbicidal activity, application before weed generation under submerged conditions (Table 16, symbol B); format: in vivo, Japanese bulrush (Schoenoplectus juncoides); conditions: 269 g/ha applied herbicide
In short: as §3

COCCOCOc1c(C)nn(C)c(=O)c1-c1c(-c2ccc(OCCSC)cc2)sc2ccc(F)cc12 [2-059]
herbicidal effect on P: chickweed (chickweed [1]): 5 (Herbicidal rate of 90% or more (almost completely withered)) | herbicidal effect on H (barnyard grass), rating 0-5 (barnyard grass [2]): 5 (Herbicidal rate of 90% or more (almost completely withered)) | Herbicidal effect on C: oval-leafed pondweed (grade 0-5) (oval-leafed pondweed): 4 (Herbicidal rate of 70% or more and less than 90%) | herbicidal effect rating, G: green foxtail (green foxtail [3]): 5 (Herbicidal rate of 90% or more (almost completely withered)) | herbicidal effect on R: persian speedwell (persian speedwell [4]): 5 (Herbicidal rate of 90% or more (almost completely withered)) | herbicidal effect rating, K: Italian ryegrass (Italian ryegrass [5]): 4 (Herbicidal rate of 70% or more and less than 90%) | herbicidal effect on J: blackgrass (blackgrass [6]): 5 (Herbicidal rate of 90% or more (almost completely withered)) | herbicidal effect rating, M: velvetleaf (velvetleaf [7]): 1 (Herbicidal rate of 5% or more and less than 20%) | herbicidal effect rating, J: blackgrass (blackgrass [8]): 0 (Herbicidal rate of 5% or less (almost no effect)) | herbicidal effect rating, F: southern crabgrass (southern crabgrass [9]): 4 (Herbicidal rate of 70% or more and less than 90%) | herbicidal effect on N: redroot pigweed (redroot pigweed [10]): 5 (Herbicidal rate of 90% or more (almost completely withered)) | herbicidal effect on G: green foxtail (green foxtail [11]): 5 (Herbicidal rate of 90% or more (almost completely withered)) | herbicidal effect on O: lambsquarters (lambsquarters [12]): 5 (Herbicidal rate of 90% or more (almost completely withered)) | herbicidal effect on M: velvetleaf (velvetleaf [13]): 5 (Herbicidal rate of 90% or more (almost completely withered)) | herbicidal effect on I: wild oat (wild oat [14]): 4 (Herbicidal rate of 70% or more and less than 90%) | herbicidal effect on L: windgrass (windgrass [15]): 5 (Herbicidal rate of 90% or more (almost completely withered)) | herbicidal effect rating, R: persian speedwell (persian speedwell [16]): 5 (Herbicidal rate of 90% or more (almost completely withered)) | herbicidal effect rating, H: barnyard grass (barnyard grass [17]): 1 (Herbicidal rate of 5% or more and less than 20%) | herbicidal effect rating, P: chickweed (chickweed [18]): 4 (Herbicidal rate of 70% or more and less than 90%) | herbicidal effect on H: barnyard grass (barnyard grass [19]): 5 (Herbicidal rate of 90% or more (almost completely withered)) | Herbicidal effect on A: late watergrass (grade 0-5) (late watergrass): 3 (Herbicidal rate of 40% or more and less than 70%) | herbicidal effect on K: Italian ryegrass (Italian ryegrass [20]): 5 (Herbicidal rate of 90% or more (almost completely withered)) | herbicidal effect rating, N: redroot pigweed (redroot pigweed [21]): 5 (Herbicidal rate of 90% or more (almost completely withered)) | herbicidal effect rating, O: lambsquarters (lambsquarters [22]): 5 (Herbicidal rate of 90% or more (almost completely withered)) | herbicidal effect on D (Chinese sprangletop), rating 0-5 (Chinese sprangletop): 5 (Herbicidal rate of 90% or more (almost completely withered)) | herbicidal effect on E (rice flat sedge), rating 0-5 (rice flat sedge): 5 (Herbicidal rate of 90% or more (almost completely withered)) | herbicidal effect rating, L: windgrass (windgrass [23]): 4 (Herbicidal rate of 70% or more and less than 90%) | herbicidal effect on F: southern crabgrass (southern crabgrass [24]): 5 (Herbicidal rate of 90% or more (almost completely withered)) | herbicidal effect rating, I: wild oat (wild oat [25]): 0 (Herbicidal rate of 5% or less (almost no effect)) | Herbicidal effect on B: Japanese bulrush (grade 0-5) (Japanese bulrush): 3 (Herbicidal rate of 40% or more and less than 70%)

From US20230085307A1, “PYRIDAZINONE COMPOUND AND HERBICIDE” (NISSAN CHEMICAL CORPORATION, priority 2019, published 2023)
